According to ChEMBL document CHEMBL2034881, “Inverse Virtual Screening allows the discovery of the biological activity of natural compounds” (Bioorg Med Chem, 2012):

What was measured:
[1] = biological target: T1, 3-phosphoinositide-dependent protein kinase 1 (Homo sapiens, UniProt O15530); assay: Inhibition of human PDK1 assessed as inhibition of [33P] incorporation into substrate after 60 mins by scintillation counting
T1 sequence (O15530 whole entry): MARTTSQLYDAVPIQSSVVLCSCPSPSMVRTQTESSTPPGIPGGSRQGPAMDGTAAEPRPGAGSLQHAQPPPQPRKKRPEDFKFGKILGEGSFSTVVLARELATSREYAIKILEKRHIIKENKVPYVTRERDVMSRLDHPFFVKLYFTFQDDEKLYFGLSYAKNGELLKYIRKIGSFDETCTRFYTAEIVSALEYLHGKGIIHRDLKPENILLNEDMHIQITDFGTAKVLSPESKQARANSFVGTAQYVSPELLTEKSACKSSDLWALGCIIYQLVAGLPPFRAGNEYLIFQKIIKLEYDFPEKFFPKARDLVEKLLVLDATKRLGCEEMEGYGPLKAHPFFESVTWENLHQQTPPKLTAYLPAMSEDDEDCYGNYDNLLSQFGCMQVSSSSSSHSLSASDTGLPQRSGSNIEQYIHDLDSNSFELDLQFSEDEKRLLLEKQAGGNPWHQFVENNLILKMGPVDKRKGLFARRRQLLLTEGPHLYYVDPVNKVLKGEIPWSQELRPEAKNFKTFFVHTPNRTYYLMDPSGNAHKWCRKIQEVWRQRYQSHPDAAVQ

[2] = biological target: Protein kinase C alpha type (Homo sapiens, UniProt P17252); assay: Inhibition of human PKC alpha assessed as inhibition of [33P] incorporation into substrate after 60 mins by scintillation counting
[3] = biological target: Protein kinase C theta type (Homo sapiens, UniProt Q04759); assay: Inhibition of human PKC theta assessed as inhibition of [33P] incorporation into substrate after 60 mins by scintillation counting
Protein kinase C theta type, sequence (Q04759 whole entry): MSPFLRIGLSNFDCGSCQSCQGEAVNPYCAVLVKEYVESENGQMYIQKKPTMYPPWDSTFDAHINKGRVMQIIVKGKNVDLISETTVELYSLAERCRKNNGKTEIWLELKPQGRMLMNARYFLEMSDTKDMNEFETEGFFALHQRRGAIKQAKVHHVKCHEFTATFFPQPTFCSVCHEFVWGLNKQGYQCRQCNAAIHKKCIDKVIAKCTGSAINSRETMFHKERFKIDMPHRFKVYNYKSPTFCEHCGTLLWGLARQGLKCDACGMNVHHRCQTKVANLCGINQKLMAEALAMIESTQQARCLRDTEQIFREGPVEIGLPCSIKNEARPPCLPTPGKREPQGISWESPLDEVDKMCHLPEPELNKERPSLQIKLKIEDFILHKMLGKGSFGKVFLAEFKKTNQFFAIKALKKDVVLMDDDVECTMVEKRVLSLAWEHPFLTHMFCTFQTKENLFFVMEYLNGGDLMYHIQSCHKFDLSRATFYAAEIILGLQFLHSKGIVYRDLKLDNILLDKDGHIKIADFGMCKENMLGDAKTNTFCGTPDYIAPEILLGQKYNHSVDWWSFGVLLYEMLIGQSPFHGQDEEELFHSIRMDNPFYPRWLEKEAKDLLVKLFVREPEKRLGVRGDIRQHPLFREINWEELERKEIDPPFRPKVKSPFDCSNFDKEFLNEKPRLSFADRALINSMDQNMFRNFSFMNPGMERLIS

IC50 [1] [µM] | IC50 [2] [µM] | IC50 [3] [µM] | SMILES
58.7 | 45.3 | 31.6 | COc1cc(O)c(CC=C(C)C)c2c1C(=O)CC(c1ccc(O)cc1)O2 (stereo unspecified) [ISOXANTHOHUMOL]
6.6 | > 100 | > 100 | COc1cc(O)c(CC=C(C)C)c(O)c1C(=O)/C=C/c1ccc(O)cc1 [XANTHOHUMOL]
